Source: patent publication US20220241249A1, “PHARMACEUTICAL COMPOSITION AND KIT CONTAINING NOVEL PENAM DERIVATIVE OR SALT THEREOF AND ONE OR MORE COMPOUNDS SELECTED FROM beta-LACTAMASE INHIBITORY COMPOUND AND ANTIBACTERIAL COMPOUND OR SALTS THEREOF” (priority 2019, published 2022)
In brackets after ≈: the same amount, converted by molar mass.

Experiments:
Experiment in all cases: Antibacterial activity evaluation test, MIC by broth microdilution (CLSI)
Assay type in all cases: cell-based
[1] = system: OXA-48-containing Klebsiella pneumoniae strain (Y-1062); conditions: for MIC: Klebsiella pneumoniae
Experimental: (§1) The minimum inhibitory concentration (MIC) was measured according to the Clinical and Laboratory Standards Institute (CLSI) standard method by using the following broth microdilution method.
(§2) As bacteria, a Pseudomonas aeruginosa strain ATCC27853, an AmpC-derepressed Pseudomonas aeruginosa mutant strain (S-3028), an IMP-1-containing Pseudomonas aeruginosa strain (S-2838), a VIM-2-containing Pseudomonas aeruginosa strain (S-3779), a GES-19 and GES-20-containing Pseudomonas aeruginosa strain (S-3759), a CTX-M-15-containing Escherichia coli strain (TK-1747), a KPC-2-containing Klebsiella pneumoniae strain (Y-995), an OXA-48-containing Klebsiella pneumoniae strain (Y-1062), and an NDM-1-containing Klebsiella pneumoniae strain (Y-1007) were used. The test bacterial cells that had been cultured overnight on a Mueller Hinton agar medium were scraped off, suspended at a density equivalent to 0.5 McFarland standard, and diluted 10-fold, thereby obtaining an inoculum. A cation-adjusted Mueller Hinton medium containing a test compound was inoculated with 0.005 mL of the inoculum, and the cells were cultured at 35° C. for 16 to 20 hours. The minimum drug concentration at which the growth of bacteria was not visually observed was defined as MIC (μg/mL).
(§3) An antibacterial activity evaluation test was performed in the same manner as in Test Example 1.

[2] = system: KPC-2-containing Klebsiella pneumoniae strain (Y-995); conditions: for MIC: Klebsiella pneumoniae
Experimental: as §1, §2, §3

[3] = system: AmpC-derepressed Pseudomonas aeruginosa mutant strain (S-3028); conditions: for MIC: Pseudomonas aeruginosa
Experimental: as §1, §2, §3

[4] = system: VIM-2-containing Pseudomonas aeruginosa strain (S-3779); conditions: for MIC: Pseudomonas aeruginosa
Experimental: as §1, §2, §3

[5] = system: CTX-M-15-containing Escherichia coli strain (TK-1747); conditions: for MIC: Escherichia coli
Experimental: as §1, §2, §3

[6] = system: NDM-1-containing Klebsiella pneumoniae strain (Y-1007); conditions: for MIC: Klebsiella pneumoniae
Experimental: as §1, §2, §3

[7] = system: Pseudomonas aeruginosa strain ATCC27853; conditions: Pseudomonas aeruginosa, ATCC27853
Experimental: as §1, §2, §3

[8] = system: IMP-1-containing Pseudomonas aeruginosa strain (S-2838); conditions: for MIC: Pseudomonas aeruginosa
Experimental: as §1, §2, §3

[9] = system: GES-19 and GES-20-containing Pseudomonas aeruginosa strain (S-3759); conditions: for MIC: Pseudomonas aeruginosa
Experimental: as §1, §2, §3

Row | Compound | MIC [1] | MIC [2] | MIC [3] | MIC [4] | MIC [5] | MIC [6] | MIC [7] | MIC [8] | MIC [9] | Antibacterial activity (MIC) Klebsiella pneumoniae Y-1062 [1] | Antibacterial activity (MIC) Klebsiella pneumoniae Y-995 [2] | Antibacterial activity (MIC) Pseudomonas aeruginosa S-3028 [3] | Antibacterial activity (MIC) Pseudomonas aeruginosa S-3779 [4] | Antibacterial activity (MIC) Escherichia coli TK-1747 [5] | Antibacterial activity (MIC) Klebsiella pneumoniae Y-1007 [6] | Antibacterial activity (MIC) Pseudomonas aeruginosa ATCC 27853 [7] | Antibacterial activity (MIC) Pseudomonas aeruginosa S-2838 [8] | Antibacterial activity (MIC) Pseudomonas aeruginosa S-3759 [9]
1 | C[C@H]1CN(/N=C/CNC(=O)C(=O)c2ccc(O)c(O)c2Cl)C(=O)N1[C@]1(C(=O)O)CN2C(=O)C(NC(=O)/C(=N\OC(C)(C)C(=O)O)c3csc(N)n3)[C@H]2S1 (stereo partly drawn) [Example 47] | 0.25 µg/mL (≈ 0.314 µM) | 0.5 µg/mL (≈ 0.628 µM) | 0.12 µg/mL (≈ 0.151 µM) | 1 µg/mL (≈ 1.26 µM) | < 0.06 µg/mL | < 0.06 µg/mL | 0.5 µg/mL (≈ 0.628 µM) | 4 µg/mL (≈ 5.02 µM) | 1 µg/mL (≈ 1.26 µM) |  |  |  |  |  |  |  |  | 
2 | CC(C)(O/N=C(\C(=O)N[C@@H]1C(=O)N2C[C@@](C(=O)O)(N3CC[C@@H](NC(=O)C(=O)c4ccc(O)c(O)c4Cl)C3=O)S[C@H]12)c1csc(N)n1)C(=O)O [Example 85, (3R,5R,6R)-6-((Z)-2-(2-aminothiazol-4-yl)-2-(((2-carboxypropan-2-yl)oxy)imino)acetamido)-3-((R)-3-(2-(2-chloro-3,4-dihydroxyphenyl)-2-oxoacetamido)-2-oxopyrrolidin-1-yl)-7-oxo-4-thia-1-azabicyclo[3.2.0]heptane-3-carboxylic acid] | 0.12 µg/mL (≈ 0.162 µM) | < 0.06 µg/mL | 0.12 µg/mL (≈ 0.162 µM) | 0.25 µg/mL (≈ 0.338 µM) | < 0.06 µg/mL | < 0.06 µg/mL | 0.5 µg/mL (≈ 0.676 µM) | 0.25 µg/mL (≈ 0.338 µM) | 0.25 µg/mL (≈ 0.338 µM) |  |  |  |  |  |  |  |  | 
3 | CC(C)(O/N=C(\C(=O)NC1C(=O)N2C[C@@](C(=O)O)(N3CCN(NC(=O)NNC(=O)C(=O)c4ccc(O)c(O)c4Cl)C3=O)S[C@H]12)c1csc(N)n1)C(=O)O (stereo partly drawn) [Example 153] |  |  |  |  |  |  |  |  |  | 4 µg/mL | 0.25 µg/mL | 0.12 µg/mL | 1 µg/mL | 0.5 µg/mL | < 0.06 µg/mL | 0.5 µg/mL | 0.5 µg/mL | 2 µg/mL
4 | CC(C)(O/N=C(\C(=O)N[C@@H]1C(=O)N2C[C@@](C(=O)O)(N3CCN(NC(=O)c4cc(Cl)c(O)c(O)c4Cl)C3=O)S[C@H]12)c1csc(N)n1)C(=O)O [Example 83, (3R,5R,6R)-6-((Z)-2-(2-aminothiazol-4-yl)-2-(((2-carboxypropan-2-yl)oxy)imino)acetamido)-3-(3-(2,5-dichloro-3,4-dihydroxybenzamido)-2-oxoimidazolidin-1-yl)-7-oxo-4-thia-1-azabicyclo[3.2.0]heptane-3-carboxylic acid] | 2 µg/mL (≈ 2.68 µM) | 0.25 µg/mL (≈ 0.334 µM) | 0.5 µg/mL (≈ 0.669 µM) | 0.5 µg/mL (≈ 0.669 µM) | 0.5 µg/mL (≈ 0.669 µM) | < 0.06 µg/mL | 0.25 µg/mL (≈ 0.334 µM) | 0.5 µg/mL (≈ 0.669 µM) | 1 µg/mL (≈ 1.34 µM) |  |  |  |  |  |  |  |  | 
5 | CC(C)(O/N=C(\C(=O)N[C@@H]1C(=O)N2C[C@@](C(=O)O)(N3CC(CNC(=O)c4ccc(O)c(O)c4Cl)OC3=O)S[C@H]12)c1csc(N)n1)C(=O)O (stereo partly drawn) [Example 73, (3R,5R,6R)-6-((Z)-2-(2-aminothiazol-4-yl)-2-(((2-carboxypropan-2-yl)oxy)imino)acetamido)-3-(5-((2-chloro-3,4-dihydroxybenzamido)methyl)-2-oxooxazolidin-3-yl)-7-oxo-4-thia-1-azabicyclo[3.2.0]heptane-3-carboxylic acid] | 1 µg/mL (≈ 1.37 µM) | 16 µg/mL (≈ 22 µM) | 0.25 µg/mL (≈ 0.343 µM) | 1 µg/mL (≈ 1.37 µM) | 0.25 µg/mL (≈ 0.343 µM) | 0.12 µg/mL (≈ 0.165 µM) | 0.5 µg/mL (≈ 0.687 µM) | 0.5 µg/mL (≈ 0.687 µM) | 0.5 µg/mL (≈ 0.687 µM) |  |  |  |  |  |  |  |  | 
6 | CC(C)(O/N=C(\C(=O)NC1C(=O)N2C[C@@](C(=O)O)(N3CCN(NC(=O)C(=O)c4cc(O)c(O)cc4F)C3=O)S[C@H]12)c1csc(N)n1)C(=O)O (stereo partly drawn) [Example 147, (3R,5R,6R)-6-((Z)-2-(2-aminothiazol-4-yl)-2-(((2-carboxypropan-2-yl)oxy)imino)aceta-mido)-3-(3-(2-(2-fluoro-4,5-dihydroxy-phenyl)-2-oxoaceta-mido)-2-oxoimidazol-idin-1-yl)-7-oxo-4-thia-1-azabicyclo[3.2.0]-heptane-3-carboxylic acid] |  |  |  |  |  |  |  |  |  | 4 µg/mL | 0.25 µg/mL | 0.5 µg/mL | 1 µg/mL | 1 µg/mL | < 0.06 µg/mL | 1 µg/mL | 4 µg/mL | 1 µg/mL
7 | CC(C)(O/N=C(\C(=O)NC1C(=O)N2C[C@@](C(=O)O)(N3CCN(NC(=O)C(=O)NNC(=O)C(=O)c4ccc(O)c(O)c4Cl)C3=O)S[C@H]12)c1nc(N)sc1Cl)C(=O)O (stereo partly drawn) [Example 136, (3R,5R,6R)-6-((Z)-2-(2-amino-5-chlorothia-zol-4-yl)-2-(((2-carboxy-propan-2-yl)oxy)imino)-acetamido)-3-(3-(2-(2-(2-(2-chloro-3,4-dihydroxyphenyl)-2-oxoacetyl)hydrizinyl)-2-oxoacetamido)-2-oxoimidazolidin-1-yl)-7-oxo-4-thia-1-aza-bicyclo[3.2.0]heptane-3-carboxylic acid] | 0.12 µg/mL (≈ 0.139 µM) | 0.25 µg/mL (≈ 0.29 µM) | 0.12 µg/mL (≈ 0.139 µM) | 0.5 µg/mL (≈ 0.58 µM) | < 0.06 µg/mL | 0.12 µg/mL (≈ 0.139 µM) | 0.5 µg/mL (≈ 0.58 µM) | 0.12 µg/mL (≈ 0.139 µM) | 0.5 µg/mL (≈ 0.58 µM) |  |  |  |  |  |  |  |  | 
8 | CC(C)(O/N=C(\C(=O)N[C@@H]1C(=O)N2C[C@@](C(=O)O)(N3CCN(NC(=O)C(=O)c4ccc(O)c(O)c4Cl)C3=O)S[C@H]12)c1nc(N)sc1Cl)C(=O)O [Example 22, (3R,5R,6R)-6-((Z)-2-(2-amino-5-chlorothiazol-4-yl)-2-(((2-carboxypropan-2-yl)oxy)imino)acetamido)-3-(3-(2-(2-chloro-3,4-dihydroxyphenyl)-2-oxoacetamido)-2-oxoimidazolidin-1-yl)-7-oxo-4-thia-1-azabicyclo[3.2.0]heptane-3-carboxylic acid] | 0.06 µg/mL (≈ 0.0774 µM) | 0.06 µg/mL (≈ 0.0774 µM) | 0.5 µg/mL (≈ 0.645 µM) | 0.25 µg/mL (≈ 0.322 µM) | < 0.06 µg/mL | < 0.06 µg/mL | 0.5 µg/mL (≈ 0.645 µM) | 0.5 µg/mL (≈ 0.645 µM) | 0.5 µg/mL (≈ 0.645 µM) |  |  |  |  |  |  |  |  | 
9 | CC(C)(O/N=C(\C(=O)N[C@@H]1C(=O)N2C[C@@](C(=O)O)(N3CCN(/N=C/C=N/NC(=O)NCCNC(=O)c4ccc(O)c(O)c4Cl)C3=O)S[C@H]12)c1csc(N)n1)C(=O)O [Example 53, (3R,5R,6R)-6-((Z)-2-(2-aminothiazol-4-yl)-2-(((2-carboxypropan-2-yl)oxy)imino)acetamido)-3-(3-(((1E,2E)-2-(2-((2-(2-chloro-3,4-dihydroxybenzamido)ethyl)carbamoyl)hydrazono)ethylidene)amino)-2-oxoimidazolidin-1-yl)-7-oxo-4-thia-1-azabicyclo[3.2.0]heptane-3-carboxylic acid] | 0.5 µg/mL (≈ 0.586 µM) | 2 µg/mL (≈ 2.34 µM) | 1 µg/mL (≈ 1.17 µM) | 0.5 µg/mL (≈ 0.586 µM) | 2 µg/mL (≈ 2.34 µM) | 0.12 µg/mL (≈ 0.141 µM) | 0.5 µg/mL (≈ 0.586 µM) | 4 µg/mL (≈ 4.69 µM) | 2 µg/mL (≈ 2.34 µM) |  |  |  |  |  |  |  |  | 
10 | CC(C)(O/N=C(\C(=O)N[C@@H]1C(=O)N2C[C@@](C(=O)O)(N3CCN(NC(=O)c4ccc(O)c(O)c4Cl)C3=O)S[C@H]12)c1csc(N)n1)C(=O)O [Example 2, (3R,5R,6R)-6-((Z)-2-(2-aminothiazol-4-yl)-2-(((2-carboxypropan-2-yl)oxy)imino)acetamido)-3-(3-(2-chloro-3,4-dihydroxybenzamido)-2-oxoimidazolidin-1-yl)-7-oxo-4-thia-1-azabicyclo[3.2.0]heptane-3-carboxylic acid] | 2 µg/mL (≈ 2.8 µM) | 0.12 µg/mL (≈ 0.168 µM) | 1 µg/mL (≈ 1.4 µM) | 0.25 µg/mL (≈ 0.351 µM) | 0.25 µg/mL (≈ 0.351 µM) | < 0.06 µg/mL | 1 µg/mL (≈ 1.4 µM) | 0.5 µg/mL (≈ 0.701 µM) | 4 µg/mL (≈ 5.61 µM) |  |  |  |  |  |  |  |  | 
11 | CC(C)(O/N=C(\C(=O)N[C@@H]1C(=O)N2C[C@@](C(=O)O)(N3CCN(NC(=O)C(=O)NNC(=O)C(=O)c4ccc(O)c(O)c4Cl)C3=O)S[C@H]12)c1csc(N)n1)C(=O)O [Example 88, (3R,5R,6R)-6-((Z)-2-(2-aminothiazol-4-yl)-2-(((2-carboxypropan-2-yl)oxy)imino)acetamido)-3-(3-(2-(2-(2-(2-chloro-3,4-dihydroxyphenyl)-2-oxoacetyl)hydradienyl)-2-oxoacetamido)-2-oxoimidazolidin-1-yl)-7-oxo-4-thia-1-azabicyclo[3.2.0]heptane-3-carboxylic acid] | 0.5 µg/mL (≈ 0.604 µM) | 0.25 µg/mL (≈ 0.302 µM) | 0.5 µg/mL (≈ 0.604 µM) | 0.5 µg/mL (≈ 0.604 µM) | 2 µg/mL (≈ 2.42 µM) | < 0.06 µg/mL | 0.5 µg/mL (≈ 0.604 µM) | 0.5 µg/mL (≈ 0.604 µM) | 0.5 µg/mL (≈ 0.604 µM) |  |  |  |  |  |  |  |  | 
